Assay results: ChEMBL document CHEMBL1153151, “Novel P2-P4 macrocyclic inhibitors of HCV NS3/4A protease by P3 succinamide fragment depeptidization strategy” (Bioorg Med Chem Lett, 2010)
pEC50, pKi: −log10 of the molar value.

Legend:
Hepatitis C virus = assay: Antiviral activity against HCV 1b infected in Huh7 cells assessed as inhibition viral subgenomic replication by luciferase based replicon assay; format: functional, organism-based, Hepacivirus hominis; conditions: genotype 1b, Huh-7
Rattus norvegicus [1] = assay: (§1) Cmax in Wistar rat at 4 mg/kg, po; format: ADME, organism-based; parameters: dose 4 mg/kg, route oral; conditions: in vivo, BLD = below limit of detection
[2] = Inhibition of HCV NS3/4A protease; parameters: species or system Hepacivirus hominis
[3] = Drug level in Wistar rat liver at 4 mg/kg, po after 4 hrs; format: ADME, organism-based; parameters: dose 4 mg/kg, route oral; conditions: read-out: AUC
Rattus norvegicus [4] = assay: AUC (0 to infinity) in Wistar rat plasma at 4 mg/kg, po; format: ADME, organism-based; parameters: time infinity, dose 4 mg/kg, route oral; conditions: in vivo
[5] = as §1; format: ADME, organism-based; parameters: dose 4 mg/kg, route oral; conditions: Wistar, in vivo

| Compound | pEC50 (Hepatitis C virus) | Cmax (Rattus norvegicus [1]) | pKi [2] | concentration at 4 h [3] [nM] | AUC (Rattus norvegicus [4]) [µM·h] | Cmax [5] [nM] |
| --- | --- | --- | --- | --- | --- | --- |
| C=C[C@@H]1C[C@]1(NC(=O)[C@@H]1C[C@@H]2CN1C(=O)[C@H](C1CCCCC1)CC(=O)NCCCCCc1cc(OC)cc3nc(-c4ccccc4)cc(c13)O2)C(=O)NS(=O)(=O)C1CC1 | 8.15 | BLD | 9.25 | 100 | – | – |
| C=C[C@@H]1C[C@]1(NC(=O)[C@@H]1C[C@@H]2CN1C(=O)[C@H](C1CCCCC1)CC(=O)N(C(C)C)CCCCCc1cc(OC)cc3nc(-c4ccccc4)cc(c13)O2)C(=O)NS(=O)(=O)C1CC1 | 7.43 | – | 9.22 | 9300 | 1.1 | 380 |
| C=C[C@@H]1C[C@]1(NC(=O)[C@@H]1C[C@@H]2CN1C(=O)[C@H](C1CCCCC1)CC(=O)N(C(C)C)CCCCCc1cccc3c1CN(C3)C(=O)O2)C(=O)NS(=O)(=O)C1CC1 | 7.96 | – | 9.21 | 3000 | 0.09 | 90 |
| C=C[C@@H]1C[C@]1(NC(=O)[C@@H]1C[C@@H]2CN1C(=O)[C@H](C(C)C)NC(=O)OCCC/C=C\c1cccc3c1CN(C3)C(=O)O2)C(=O)NS(=O)(=O)C1CC1 | 7.92 | – | 10.22 | – | – | – |

Continued, values first:

| pEC50 (Hepatitis C virus) | Cmax (Rattus norvegicus [1]) | pKi [2] | concentration at 4 h [3] [nM] | AUC (Rattus norvegicus [4]) [µM·h] | Cmax [5] [nM] | Compound |
| --- | --- | --- | --- | --- | --- | --- |
| 7.92 | – | 9.12 | 2200 | 0.12 | 50 | C=C[C@@H]1C[C@]1(NC(=O)[C@@H]1C[C@@H]2CN1C(=O)[C@H](C1CCCCC1)CC(=O)NCCCCCc1cccc3c1CN(C3)C(=O)O2)C(=O)NS(=O)(=O)C1CC1 |
| 7.00 | – | 8.85 | – | – | – | C=C[C@@H]1C[C@]1(NC(=O)[C@@H]1C[C@@H]2CN1C(=O)[C@H](C(C)C)CC(=O)NCCCCCc1cccc3c1CN(C3)C(=O)O2)C(=O)NS(=O)(=O)C1CC1 |
| 7.46 | – | 9.14 | 2200 | 0.22 | 80 | C=C[C@@H]1C[C@]1(NC(=O)[C@@H]1C[C@@H]2CN1C(=O)[C@H](C(C)C)CC(=O)N(C(C)C)CCCCCc1cccc3c1CN(C3)C(=O)O2)C(=O)NS(=O)(=O)C1CC1 |
